Paper PMC7277448, “Discovery of Hordenine as a Potential Inhibitor of Pyruvate Dehydrogenase Kinase 3: Implication in Lung Cancer Therapy” (Biomedicines, 2020)
Where “and” joins values, the source holds several entries; their conditions need not be identical. Equal values may be shown once.

Assays:
H1299 cells = experiment: MTT cell viability assay, H1299; format: cell-based; details: Homo sapiens, NCI-H1299, 48 h, 0–200 μM, read-out: IC50, growth inhibition of H1299 cells
Experimental: (§1) Cell cultures of H1299 and A549 cells were respectively maintained in RPMI-1640 and F12K cell growth medium, while HEK293 cells were maintained in DMEM (having 10% heat-inactivated FBS and 1% antibiotic-antimycotic solution) in a humidified CO2 incubator (5% CO2, 37 °C). These lung cancer cell lines were selected based on previous reports related to PDK3 [49]. Hordenine was evaluated for cell growth inhibition potential using the MTT assay as described. Briefly, the selected cells were plated in a 96-well culture plate (6000–7000 cells/well), and after 24 h cells were incubated with hordenine (0–200 μM) for 48 h. Following 48 h incubation of cells with hordenine, 25 µL MTT (from 5 mg/mL stock) was added and incubated for 4–5 h at 37 °C in a CO2 incubator. The resultant formazan was dissolved in 100 µL of DMSO and the absorbance was measured at 570 nm using a multiplate ELISA reader (BioRad). The percentage of cell viabilities was estimated using absorbance data and plotted as a function of hordenine concentration. Respective DMSO treatment was taken as vehicle control and subtracted from corresponding hordenine treatment groups, whereas for anticancer studies paclitaxel has been taken as a positive control.

A549 cells = experiment: MTT cell viability assay, A549; format: cell-based; details: Homo sapiens, 48 h, 0–200 μM, read-out: IC50, growth inhibition of A549 cells
Experimental: as §1

PDK3 [1] = biological target: T1, PDK3 (Homo sapiens, UniProt Q15120); experiment: Fluorescence binding (quenching, modified Stern-Volmer); details: PDK3 4 μM, modified Stern-Volmer equation; read-out: Binding constant (K) from fluorescence studies (converted)
T1 construct: made in house
T1 sequence (Q15120 whole entry): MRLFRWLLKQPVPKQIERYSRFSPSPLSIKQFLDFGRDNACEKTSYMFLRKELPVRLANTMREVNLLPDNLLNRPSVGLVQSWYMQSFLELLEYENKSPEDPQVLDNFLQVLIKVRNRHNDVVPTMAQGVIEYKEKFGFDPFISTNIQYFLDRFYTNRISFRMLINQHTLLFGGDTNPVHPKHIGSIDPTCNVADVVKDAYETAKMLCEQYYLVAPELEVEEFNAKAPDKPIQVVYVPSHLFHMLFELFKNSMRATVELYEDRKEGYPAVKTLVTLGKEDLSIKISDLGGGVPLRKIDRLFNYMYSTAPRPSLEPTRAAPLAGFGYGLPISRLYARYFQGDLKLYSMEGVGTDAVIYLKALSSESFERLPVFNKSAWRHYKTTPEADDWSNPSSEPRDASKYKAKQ
Experimental: The binding affinity of ligands to PDK3 was analyzed by monitoring changes in the fluorescence emission intensity of protein [33]. Fluorescence measurements were carried out on the Jasco spectrofluorimeter (FP-6200, Japan). The experimental parameters were, λexc as 280 nm and λem in the range of 300–400 nm with slit width: 10 nm and medium sensitivity. All the measurements were carried out in triplicates and blank subtracted spectra were reported. The observed fluorescence values were corrected for the inner filter effect. Protein was titrated with an increasing concentration of ligands and each titration of protein. A decrease in the fluorescence intensity was mathematically evaluated using the modified Stern-Volmer equation [35] to estimate the binding parameters for hordenine-PDK3 interaction.
To measure the actual binding affinity of hordenine to PDK3, fluorescence binding studies were performed as described. […] The decrease in fluorescence intensity was mathematically analyzed using a double log relation (modified Stern−Volmer equation) to find the value of binding constant (K).

PDK3 [2] = biological target: T1, PDK3; experiment: Isothermal titration calorimetry; format: binding; details: ITC 25 °C
Experimental: ITC measurements were carried out at 25 °C on a VP-ITC microcalorimeter from MicroCal, Inc (GE, MicroCal, Northampton, MA, USA). The purified protein was extensively dialyzed and degassed before use to avoid the bubble problem. DMSO was added in an equal amount to the protein solution (1% v/v) to prevent signal stability problems during ITC measurements. The first injection was a false one (2 μL) and then successive injections of 10 μL followed by the initial false injection. The sample cell contained PDK3 while the syringe was filled with the hordenine. Data analysis was carried out using the attached MicroCal Origin 8.0. The values (Ka, ΔH, ΔS) were calculated after curve fitting as described in our previous communications.
Thermodynamic parameters associated with the interaction of hordenine to PDK3 were measured by ITC as described. […] Various studies report different values of thermodynamic parameters obtained from fluorescence spectroscopy and ITC and this is because ITC measures a global change in the thermodynamic properties while fluorescence spectroscopy takes into account only the local changes around the fluorophore (Trp214). In the upper panel, raw data with negative heat pulses is shown which confirms exothermic binding. Binding curves found after subtraction of dilution heat of both ligands and protein are depicted in the bottom section. The obtained ITC isotherm advocates the spontaneous binding of hordenine with PDK3. The results presented were obtained from four site model fitting and thermodynamic parameters obtained for this interaction are presented in Table 1.

HEK293 cells = experiment: MTT cytotoxicity assay, HEK293; format: cell-based, human; details: 48 h, concentration range 0–200 μM
Experimental: as §1

PDK3 [3] = biological target: T1, PDK3; experiment: Enzyme inhibition assay (ATPase, malachite green); format: biochemical; details: ATP 200 µM, PDK3 4 µM, 25 °C, 1 h; AAT Bioquest calculator
Experimental: Following our published protocols, an enzyme inhibition assay was carried out. Freshly prepared ATP (200 µM) was added to PDK3 (4 µM) and final reaction mixture of 100 μL was incubated at 25 °C for 1 h. Malachite green (200 μL) was further added to the reaction mixture to stop the reaction followed by incubation of samples at room temperature for 20–25 min for the development of color. From the final reaction mixture, 100 μL was transferred to a 96-well plate in triplicate to measure spectrophotometrically at 620 nm.
To further validate our fluorescence-based binding studies, an enzyme inhibition assay was carried out with increasing concentrations of hordenine to check the kinase inhibitory potential. The kinase activity was quantified and plotted as percent inhibition. The kinase activity of PDK3 alone was taken as 100% for reference. It is clear from Figure 5 that with an increasing concentration of hordenine (0–13.75 µM), there was a dose-dependent decrease in PDK3 activity.

## CN(C)CCc1ccc(O)cc1 [hordenine, Hordenine]
H1299 cells
  IC50: 21.3 ± 1.99 µM
A549 cells
  IC50: 15 ± 2.13 µM
PDK3 [1]
  Kd: 1 µM and 2 µM
PDK3 [2]; 500 µM hordenine into 15 µM PDK3, four site model, site 1, read-out: Ka1 (Association Constant)
  Kd: 51.3 µM
PDK3 [2]; four site model, site 1
  ∆H1 (Enthalpy Change): ∆H1 = 4151 ± 1.2 × 10^3 cal/mol
  ∆S1: ∆S1 = 33.5 cal/mol/deg
PDK3 [2]; four site model, site 2
  ∆H2 (Enthalpy Change): ∆H2 = −5.11 × 10^4 ± 4.18 × 10^3 cal/mol
  ∆S2: ∆S2 = −149 cal/mol/deg
PDK3 [2]; four site model, site 2, read-out: Ka2 (Association Constant)
  Kd: 10.8 µM
PDK3 [2]; four site model, site 3
  ∆H3 (Enthalpy Change): ∆H3 = 3.75 × 10^4 ± 5.20 × 10^3 cal/mol
  ∆S3: ∆S3 = 147 cal/mol/deg
PDK3 [2]; four site model, site 3, read-out: Ka3 (Association Constant)
  Kd: 19.6 µM
PDK3 [2]; four site model, site 4
  ∆H4 (Enthalpy Change): ∆H4 = −2.33 × 10^5 ± 1.03 × 10^4 cal/mol
  ∆S4: ∆S4 = −767 cal/mol/deg
PDK3 [2]; four site model, site 4 (printed Ka3), read-out: Ka3 (Association Constant), fourth line of the table
  Kd: 400 µM
HEK293 cells
  Growth inhibition / cytotoxicity on HEK293 cells: did not inhibit the growth of HEK293 cells
PDK3 [3]
  IC50: 5.4 µM
